Source: PMC8364251 (Pharmacological Research, 2021)
“Also recorded” adds a separate entry of the source.

Tests used:
human ACE2 = human ACE2 (Homo sapiens, UniProt Q9BYF1); type: binding
RBD-ACE2 binding = RBD-ACE2 binding (Severe acute respiratory syndrome coronavirus 2, UniProt P0DTC2); assay: ELISA ACE2:SARS-CoV-2 Spike inhibitor screening assay; conditions: 25–200 μM compounds
[1] = tested on: SARS-CoV-2-pseudotyped lentivirus; type: cell-based; conditions: concentrations up to 100 μM
authentic SARS-CoV-2 = conditions: cited from earlier work
SARS-CoV-2 [2] = assay: Authentic SARS-CoV-2 CPE reduction assay in Vero E6 cells; type: cell-based
[3] = 200 and 300 mg/kg/day oral, 7 days
H1N1 influenza virus = conditions: cited from earlier work
zika virus = conditions: cited from earlier work
Ebola virus = conditions: cited from earlier work
HIV-1 protease = conditions: cited from earlier work
SARS-CoV-2 [4] = assay: Plaque formation assay; conditions: Vero E6
HEK293 = type: cell-based, human; conditions: HEK293 cells
Spike-RBD protein = Spike-RBD protein (Severe acute respiratory syndrome coronavirus 2, UniProt P0DTC2); type: binding, SARS-CoV-2; conditions: BLI screening
RBD = RBD (Severe acute respiratory syndrome coronavirus 2, UniProt P0DTC2); conditions: streptavidin probes; cited from earlier work

human ACE2, sequence (Q9BYF1 18-805): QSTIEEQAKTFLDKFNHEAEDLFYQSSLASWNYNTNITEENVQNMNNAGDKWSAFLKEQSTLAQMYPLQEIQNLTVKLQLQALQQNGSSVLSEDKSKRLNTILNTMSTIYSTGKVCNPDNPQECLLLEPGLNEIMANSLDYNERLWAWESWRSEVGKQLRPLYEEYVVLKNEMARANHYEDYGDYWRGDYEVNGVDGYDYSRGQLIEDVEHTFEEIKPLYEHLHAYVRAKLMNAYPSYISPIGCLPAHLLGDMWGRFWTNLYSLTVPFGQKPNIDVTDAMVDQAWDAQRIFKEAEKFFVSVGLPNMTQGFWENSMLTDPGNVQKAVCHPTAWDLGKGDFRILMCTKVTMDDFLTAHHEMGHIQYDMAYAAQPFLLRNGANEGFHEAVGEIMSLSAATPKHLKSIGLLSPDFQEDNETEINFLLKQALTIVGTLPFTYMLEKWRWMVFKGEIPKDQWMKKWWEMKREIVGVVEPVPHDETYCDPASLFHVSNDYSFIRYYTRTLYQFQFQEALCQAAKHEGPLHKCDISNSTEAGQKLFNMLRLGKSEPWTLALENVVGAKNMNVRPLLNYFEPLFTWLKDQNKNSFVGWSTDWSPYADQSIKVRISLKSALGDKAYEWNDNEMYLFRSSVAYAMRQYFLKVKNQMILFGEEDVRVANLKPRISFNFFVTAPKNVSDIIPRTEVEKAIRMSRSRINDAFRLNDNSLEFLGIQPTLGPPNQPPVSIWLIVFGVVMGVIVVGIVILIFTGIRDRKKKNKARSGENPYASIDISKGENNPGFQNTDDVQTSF

## C=C[C@@](C)(/C=C/c1ccc(O)cc1)CCC=C(C)C [Bkc, bakuchiol]
Human ACE2
  binding to ACE2 in BLI: bound to ACE2 receptor
RBD-ACE2 binding
  activity in ELISA (inhibition of RBD-ACE2 binding): weakly active; also recorded: lacked activity
[1]
  inhibition of pseudovirus entry: effectively inhibited pseudovirus entry

## CC(C)=CCc1cc2c(cc1O)O[C@H](c1ccc(O)cc1)CC2=O [Bvc, bavachin]
RBD-ACE2 binding
  activity in ELISA (inhibition of RBD-ACE2 binding): high activities
Authentic SARS-CoV-2
  effect against authentic SARS-CoV-2: effective against authentic SARS-CoV-2

## O=C(/C=C/c1ccc(O)c(O)c1)OC[C@H]1O[C@@H](OCCc2ccc(O)c(O)c2)[C@H](O)[C@@H](O)[C@@H]1O [CalB, calceolarioside B]
RBD-ACE2 binding
  activity in ELISA (inhibition of RBD-ACE2 binding): weakly active

## COc1ccc2cc1Oc1ccc(cc1)C[C@H]1c3c(cc4c(c3Oc3cc5c(cc3OC)CCN(C)[C@@H]5C2)OCO4)CCN1C [Ceph, cepharanthine]
RBD-ACE2 binding
  activity in ELISA (inhibition of RBD-ACE2 binding): almost inactive
Authentic SARS-CoV-2
  effect against authentic SARS-CoV-2: effective against authentic SARS-CoV-2

## O=C(O[C@@H]1Cc2c(O)cc(O)cc2O[C@@H]1c1cc(O)c(O)c(O)c1)c1cc(O)c(O)c(O)c1 [EGCG, epigallocatechin gallate]
Human ACE2
  binding to ACE2 in BLI: bound to ACE2 receptor
RBD-ACE2 binding
  activity in ELISA (inhibition of RBD-ACE2 binding): high activities
[1]
  inhibition of pseudovirus entry: effectively inhibited pseudovirus entry
SARS-CoV-2 [2]
  inhibition of SARS-CoV-2-induced cytopathic effect: effective
[3]
  body weights: no adverse effect
  survival: no adverse effect
[3]; liver, kidney, lung, spleen, thymus
  organ weights: no adverse effect
H1N1 influenza virus
  EC50: 22 to 28 µM
Zika virus
  EC50: 21.4 µM
Ebola virus
  EC50: 50 µM
HIV-1 protease
  IC50: 50 to 100 µM
SARS-CoV-2 [4]
  inhibition of plaque formation: effective

## CC(C)=CCc1c(O)ccc(C(=O)/C=C/c2ccc(O)cc2)c1O [Ibvc, isobavachalcone]
Human ACE2
  binding to ACE2 in BLI: bound to ACE2 receptor
RBD-ACE2 binding
  activity in ELISA (inhibition of RBD-ACE2 binding): weakly active; also recorded: lacked activity
[1]
  inhibition of pseudovirus entry: effectively inhibited pseudovirus entry
SARS-CoV-2 [2]
  inhibition of SARS-CoV-2-induced cytopathic effect: effective
SARS-CoV-2 [4]
  inhibition of plaque formation: effective

## COc1ccc(C[C@@H]2c3cc(Oc4cc(C[C@@H]5c6cc(O)c(OC)cc6CCN5C)ccc4O)c(OC)cc3CCN2C)cc1 [Isl, isoliensinine]
RBD-ACE2 binding
  activity in ELISA (inhibition of RBD-ACE2 binding): high activities
HEK293
  cytotoxicity: toxicity
Authentic SARS-CoV-2
  effect against authentic SARS-CoV-2: effective against authentic SARS-CoV-2
SARS-CoV-2 [4]
  inhibition of plaque formation: inhibited plaque formation

## O=C(/C=C/c1ccc(O)c(O)c1/C=C/c1ccc(O)c(O)c1)O[C@H](Cc1ccc(O)c(O)c1)C(=O)O [SalA, salvianolic acid A]
RBD-ACE2 binding
  activity in ELISA (inhibition of RBD-ACE2 binding): high activities
[1]
  inhibition of pseudovirus entry: weakly inhibited pseudovirus entry
SARS-CoV-2 [2]
  inhibition of SARS-CoV-2-induced cytopathic effect: effective
SARS-CoV-2 [4]
  inhibition of plaque formation: effective

## O=C(/C=C/c1ccc(O)c2oc(-c3ccc(O)c(O)c3)cc12)O[C@H](Cc1ccc(O)c(O)c1)C(=O)O [SalC, Salvianolic acid C]
Spike-RBD protein
  Kd: 6.2 µM
RBD
  binding activity to RBD measured by BLI: weak binding activity to RBD

## C[C@H]1CC[C@@]2(OC1)O[C@H]1C[C@H]3[C@@H]4CC[C@@H]5C[C@@H](O[C@@H]6O[C@H](CO)[C@H](O)[C@H](O)[C@H]6O[C@@H]6O[C@H](CO)[C@@H](O)[C@H](O)[C@H]6O)CC[C@]5(C)[C@H]4CC[C@]3(C)[C@H]1[C@@H]2C [TimA, timosaponin A III]
RBD-ACE2 binding
  activity in ELISA (inhibition of RBD-ACE2 binding): almost inactive

## bavachinin [Bvcn]
RBD-ACE2 binding
  activity in ELISA (inhibition of RBD-ACE2 binding): high activities
